# Reference: patent publication US12708627B2, “Combination therapy for VAV3 cancer” (Children's Hospital Medical Center, priority 2021, dated 2026)
# Where “and” joins values, the source holds several entries; their conditions need not be identical. Equal entries are not always repeated.
# Tests used:
# [1] = system: empty vector (Mieg3)-expressing Ba/F3 cells; test: Survival of empty vector Ba/F3 cells, trypan blue exclusion; type: cell-based, murine
# Excerpt: Ba/F3 cells are bone marrow-derived, IL-3 dependent, murine pro-B cells widely used in studying the mechanism of leukemia initiation and progression and targeted therapy discovery^1. NALM-1 are human lymphoblastic cells that express p190-BCR-ABL1 but not Ikaros (IKZF1)^2. Applicant treated Ba/F3 cells transduced with retrovirus encoding either p190- or p210-BCR-ABL1 or Mieg3 empty vector^3 control as before.
# MDA-MB-231 cells were maintained in IMEM (Invitrogen) supplemented with 10% FBS, 1% penicillin/streptomycin, and 1% amphotericin B. Ba/F3 cells were cultured in RPMI (GIBCO) supplemented with 10% FBS and IL-3 (10 ng/ml), NALM-1 cells were maintained in RPMI supplemented with 15% FBS. HEK293T cells were maintained with DMEM supplemented with 10% FBS and 1% penicillin/streptomycin. All cell lines were cultured at 37° C. in a 5% CO2 humidified incubator. Cell viability was assessed by trypan blue exclusion assay as previously described^4. Cytokines were from Peprotech.
# VAV3 [2] = target: T1, VAV3 (Homo sapiens, UniProt Q9UKW4); test: pVAV3 immunohistochemistry of MDA-MB-231 xenograft tumors; type: in vivo, mice; set-up: Immunohistochemical staining of phosphorylated VAV3 in tissue derived from MDA-MB-231 xenografts; from tissue; host or cells: MDA-MB-231 xenograft tumour sections; conditions: versus vehicle control
# T1 sequence (Q9UKW4 1-847): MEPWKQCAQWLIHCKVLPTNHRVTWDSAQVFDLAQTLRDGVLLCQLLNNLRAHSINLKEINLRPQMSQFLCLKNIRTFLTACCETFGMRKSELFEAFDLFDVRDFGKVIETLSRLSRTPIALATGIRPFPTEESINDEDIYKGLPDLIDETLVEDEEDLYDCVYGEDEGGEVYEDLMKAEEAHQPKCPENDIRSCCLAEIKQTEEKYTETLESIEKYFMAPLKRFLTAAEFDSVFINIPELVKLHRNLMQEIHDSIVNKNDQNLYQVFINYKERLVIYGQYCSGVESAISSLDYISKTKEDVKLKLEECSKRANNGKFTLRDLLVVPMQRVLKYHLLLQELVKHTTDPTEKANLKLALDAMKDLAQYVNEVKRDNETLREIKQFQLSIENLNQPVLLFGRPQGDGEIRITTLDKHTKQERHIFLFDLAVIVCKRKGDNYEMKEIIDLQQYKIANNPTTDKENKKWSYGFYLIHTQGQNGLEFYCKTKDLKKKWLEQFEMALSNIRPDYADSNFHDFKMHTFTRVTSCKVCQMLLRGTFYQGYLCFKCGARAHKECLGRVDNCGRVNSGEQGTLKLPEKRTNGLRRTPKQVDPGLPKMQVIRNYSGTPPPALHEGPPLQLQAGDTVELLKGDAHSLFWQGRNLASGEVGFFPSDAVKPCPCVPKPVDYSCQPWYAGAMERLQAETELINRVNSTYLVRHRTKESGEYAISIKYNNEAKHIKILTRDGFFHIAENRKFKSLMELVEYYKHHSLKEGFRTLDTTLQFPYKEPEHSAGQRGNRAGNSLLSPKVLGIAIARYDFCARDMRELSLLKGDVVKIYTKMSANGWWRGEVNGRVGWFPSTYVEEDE
# Procedure: (7A) Immunoblot—efficiency of shRNA-mediated VAV3 knockdown in MDA-MB-231 triple negative breast cancer.
# Histology: Embedded tissues were cut into 4 μm sections then immunohistochemically stained using the Mouse on Mouse kit (MoM kit, Vector Laboratories). Tissue sections were subjected to sodium citrate antigen retrieval, pretreated with 0.3% hydrogen peroxide, blocked according to kit directions, and incubated with an antibody to phosphorylated VAV3 (Abcam) and HRP-conjugated anti-rabbit secondary (Vector Laboratories). Staining was completed with the DAB Peroxidase kit (Vector Laboratories) and counterstained with hematoxylin. Tissue sections were coverslipped with Cytoseal 60 and images acquired with a Nikon Eclipse Ci microscope.
# [3] = system: RAC1Δ/Δ+RAC2−/− murine leukemic cells expressing p190-BCR-ABL1; test: Colony formation (CFU-proB) of RAC-deficient leukemic cells; type: cell-based; conditions: IODVA1 1 μM
# Excerpt: Results are representative of two independent experiments.
# RAC1^Δ/Δ+RAC2^−/−-murine leukemic cells show severe reduction in RAC1 expression and are deficient in RAC2 (FIG. 10D). […] RAC1^Δ/Δ+RAC2^−/−-leukemic cells formed 3.8-times less colonies than wild-type leukemic cells.
# CFU-proB Assay: B-cell lineage colony-forming units (CFU-proB) were quantified post 9-day culture of leukemic BM cells or sorted for p190-BCR-ABL1-expressing B-cell progenitors in M3134 methylcellulose (StemCell Technologies) supplemented with 30% FBS (for mouse B lymphoid colony forming cells; StemCell Technologies), 2 mM L-glutamine and 1% penicillin-streptomycin (Invitrogen), 100 μM β-mercaptoethanol (Fisher-Scientific), 1% BSA (Sigma-Aldrich), 20 ng/mL of recombinant mIL-7 and 100 ng/ml of recombinant mSCF (PeproTech).
# RhoGDI1 = target: T2, RhoGDI1 (Homo sapiens, UniProt P52565); test: Liposome sedimentation assay, displacement of prenylated RAC1-GDP by GST-RhoGDI1; type: biochemical; conditions: IODVA1 2 μM
# T2 construct: made in house; host or cells: RAC1: TNAO38 insect cells
# Procedure: (§1) GAPDH was used as loading control.
# Samples were centrifuged at 20,000×g for 20 min at 4° C. and pellet (p) and supernatant(s) fractions were collected and immunoblotted for RAC1. […] Applicant then measured the interaction between fluorescently labeled RAC1 and RhoGDI1 using stopped-flow fast kinetics techniques.
# Prenylated RAC1-GDP (1 μM) was added to liposomes suspended in protein buffer (20 mM Hepes, pH 7.4, 150 mM NaCl, 5 mM MgCl2, 3 mM DTT) and incubated for 20 min on ice. […] The samples were then centrifuged at 20,000×g for 20 min at 4° C. Pellet and supernatant fractions were collected, separated on SDS-PAGE and immunoblotted for RAC1.
# [4] = target: catalytic domain (DH/PH) of the Leukemia Associated RhoGEF (LARG) (Homo sapiens, UniProt Q9NZN5); test: biochemical
# [5] = previously evaluated; cited from earlier work
# VAV3 [6] = target: T1, VAV3; test: pVAV3 levels in bone marrow aspirates of PDX mice; type: in vivo, NSG mice; conditions: PDX 2018-136 mice
# Excerpt: (§2) N=5 mice per treatment group.
# [7] = system: JNK, PAK1, AKT, STAT3 phosphorylation; test: Phospho-flow cytometry of BM cells from treated wild-type leukemic mice; type: in vivo; conditions: BM cells from one-week treated mice
# Excerpt: as §2
# To test this hypothesis, Applicant studied by phospho-flow cytometry the activity of several effectors in BM cells from one-week treated mice.
# Cdc42 = test: Active Cdc42 pull-down with GST-PAK-GBD in p190-BCR-ABL1 Ba/F3 cells; type: cell-based; conditions: 3 μM
# Excerpt: as §1
# Sequence of catalytic domain (DH/PH) of the Leukemia Associated RhoGEF (LARG) (Q9NZN5 765-1138 limits assumed, species assumed): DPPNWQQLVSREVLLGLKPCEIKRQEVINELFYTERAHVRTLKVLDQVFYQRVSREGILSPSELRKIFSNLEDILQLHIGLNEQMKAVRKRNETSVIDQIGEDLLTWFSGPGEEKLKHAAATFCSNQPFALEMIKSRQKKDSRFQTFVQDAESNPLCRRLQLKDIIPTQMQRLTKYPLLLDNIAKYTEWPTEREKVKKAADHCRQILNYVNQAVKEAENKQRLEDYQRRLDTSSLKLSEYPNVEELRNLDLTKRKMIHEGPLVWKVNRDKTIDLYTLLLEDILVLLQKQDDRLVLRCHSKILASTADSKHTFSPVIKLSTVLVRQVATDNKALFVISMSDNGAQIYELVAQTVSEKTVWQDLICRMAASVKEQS
# T2 sequence (P52565 whole entry, species assumed): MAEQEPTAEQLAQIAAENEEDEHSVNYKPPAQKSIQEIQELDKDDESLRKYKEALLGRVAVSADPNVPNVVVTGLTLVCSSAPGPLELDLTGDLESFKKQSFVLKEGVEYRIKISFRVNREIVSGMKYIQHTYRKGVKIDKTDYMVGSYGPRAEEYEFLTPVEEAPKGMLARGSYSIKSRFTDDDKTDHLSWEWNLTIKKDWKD
smiles,measurement,setting,value
OC1(c2ccccc2)NC(=Nc2nc3ccccc3[nH]2)N=C1c1ccccn1 (stereo not shown) [IODVA1],viability,"[1]; 3 μM, day 1",not affected
same,reduction of survival,[1]; 20 μM,25.5%
same,survival,[1]; up to 5 μM,not affected
same,pVAV3 staining of tumor sections,VAV3 [2],significant decrease
same,number of colonies,[3],did not alter
same,prenylated-RAC1 displacement by RhoGDI1 from liposomes,RhoGDI1,did not affect
same,Kd,[4],7.7 µM and 5.9 to 10.4 µM
same,hematological toxicity,[5],no adverse changes in body weight or hematological parameters
same,VAV3 activation (pVAV3) in BM,VAV3 [6],significantly decreased
same,phosphorylation levels of JNK and PAK1,[7],severely reduced
same,phosphorylation levels of AKT and STAT3,[7]; wild-type leukemia,unaffected
same,decrease of levels of active Cdc42,Cdc42; 15 min,60%
same,inhibition of active Cdc42,Cdc42; 30 min incubation,totally inhibits
